One assay deals with T1, human RIP1 (Homo sapiens, UniProt Q13546).
T1 construct: U937 and L929 cells were obtained from the American Type Culture Collection; host or cells: U937
T1 sequence (Q13546 1-671): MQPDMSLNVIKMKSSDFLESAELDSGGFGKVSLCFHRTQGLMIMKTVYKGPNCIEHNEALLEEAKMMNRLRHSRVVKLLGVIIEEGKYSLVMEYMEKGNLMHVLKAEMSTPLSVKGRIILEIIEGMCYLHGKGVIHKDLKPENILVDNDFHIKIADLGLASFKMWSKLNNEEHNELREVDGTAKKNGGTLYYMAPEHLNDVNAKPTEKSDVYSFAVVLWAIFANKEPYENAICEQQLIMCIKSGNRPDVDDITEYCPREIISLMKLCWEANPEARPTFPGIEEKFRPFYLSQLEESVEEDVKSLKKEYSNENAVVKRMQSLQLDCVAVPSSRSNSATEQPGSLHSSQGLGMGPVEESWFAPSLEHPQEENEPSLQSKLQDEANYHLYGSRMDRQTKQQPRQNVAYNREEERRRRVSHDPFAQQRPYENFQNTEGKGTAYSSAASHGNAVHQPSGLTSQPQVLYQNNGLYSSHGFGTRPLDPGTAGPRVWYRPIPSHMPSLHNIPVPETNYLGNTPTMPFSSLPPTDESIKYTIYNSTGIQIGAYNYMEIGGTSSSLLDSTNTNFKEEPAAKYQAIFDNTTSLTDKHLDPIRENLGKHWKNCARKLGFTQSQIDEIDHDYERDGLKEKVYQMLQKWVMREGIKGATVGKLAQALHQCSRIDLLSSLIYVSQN
As to the kind of experiment: U937 cell necroptosis assay (TNFa + zVAD, CellTiter-Glo). Type of assay: cell-based. The conditions noted are these: U937 Zvad TNF CTG Recovery, U937 cells, TNFa 2 ng/mL + zVAD-fmk, 18 hours. As for the experimental part:
(§1) In this example, U937 and L929 cells were exposed to compounds of the present disclosure and a cell necroptosis assay was conducted to evaluate the compounds' activity against human RIP1 and murine RIP1.
(§2) U937 and L929 cells were obtained from the American Type Culture Collection (Manassa, Va., USA). Both cells were maintained in logarithmic growth phase in complete RPMI 1640 media (Sigma, ST Louis, Mo., USA) supplemented with 10% fetal bovine serum (Sigma, ST Louis, Mo., USA) at 37° C. with 5% CO2. For necroptosis assay, L929 cells were plated for 18 h in 100 µL/well medium at 10K cells/well in Costar 96-well black clear-bottom plates (Fisher Scientific, Hampton, N.H., USA); U937 cells were plated on the day of the assay in 50 µL/well medium containing 60 uM zVAD-fmk (Lonza, Basel, Switzerland) at 50K cells/well. Medium from L929 cells were removed from the 96-well plates and replaced with 50 µL/well new medium containing 40 uM zVAD-fmk. Each compound of the present disclosure evaluated in this example was serially diluted in DMSO from 2.5 mM in 4-fold dilutions, and then diluted 1:125 in complete medium. 50 µL/well 2× of the compound was then added to the cells in the plates. The cells were pre-incubated with the compound for 1 hour at 37° C. with 5% CO2 and before addition of 10 µL/well 11×TNFa (Peprotech, Rocky Hill, N.J., USA) to give a final concentration of 2 ng/mL for TNFa. The relative amount of necroptosis cells was determined by luminescent using a Wallac Victor2 Luminometer (PerkinElmer, Waltham, Mass., USA) and a CellTiter-Glo® Luminescent Cell Viability Reagent Assay (Promega, Madison, Wis., USA) added per manufacturer instructions after 18 hours of TNFa stimulation at 37° C. with 5% CO2.Results from this example are summarized in Table 2. This example establishes that embodiments of the compounds described herein have unexpectedly potent activity against human RIP1 and murine RIP1, which allows their assessment in in vivo mouse models of disease.
Background: In ATP-based viability assays light output follows the ATP content of the culture.

The target of another assay is T2, RIPK1 (Homo sapiens, UniProt Q13546).
T2 sequence (Q13546 1-671): T1 sequence (Q13546 1-671)
As to the kind of experiment: RIPK1 ADP-Glo biochemical kinase assay. The settings on record: 30 min at 30° C. How it is done: The final reaction volume was 5.0 μl.
Adding 5 μl of ADP-Glo™ terminated the reaction.

For a further assay, the target named is T3, murine RIP1 (Mus musculus, UniProt Q60855).
T3 construct: U937 and L929 cells were obtained from the American Type Culture Collection; host or cells: L929
T3 sequence (Q60855 1-656): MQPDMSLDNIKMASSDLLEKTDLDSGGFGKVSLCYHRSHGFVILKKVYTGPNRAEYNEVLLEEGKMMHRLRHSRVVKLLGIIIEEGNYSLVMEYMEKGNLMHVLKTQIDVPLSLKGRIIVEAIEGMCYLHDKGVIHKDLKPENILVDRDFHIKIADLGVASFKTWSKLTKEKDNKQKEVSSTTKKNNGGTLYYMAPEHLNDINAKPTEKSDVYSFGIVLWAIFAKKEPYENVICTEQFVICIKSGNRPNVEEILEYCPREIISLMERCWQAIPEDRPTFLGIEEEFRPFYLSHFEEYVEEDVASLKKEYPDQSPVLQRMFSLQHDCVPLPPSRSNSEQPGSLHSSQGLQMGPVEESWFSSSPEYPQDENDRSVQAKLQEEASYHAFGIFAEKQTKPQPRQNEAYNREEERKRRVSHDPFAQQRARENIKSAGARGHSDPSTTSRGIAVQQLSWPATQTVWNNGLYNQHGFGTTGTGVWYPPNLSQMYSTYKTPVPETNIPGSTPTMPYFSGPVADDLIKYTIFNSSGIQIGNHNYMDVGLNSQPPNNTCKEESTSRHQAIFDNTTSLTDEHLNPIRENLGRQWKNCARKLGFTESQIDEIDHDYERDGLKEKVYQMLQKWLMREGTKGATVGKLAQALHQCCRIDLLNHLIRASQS
The assay can be described thus: L929 cell necroptosis assay (TNFa + zVAD, CellTiter-Glo). It is filed as cell-based. How it is done: as §1, §2

Molecules are shown by their SMILES.

Regarding `O=C(NC1CCc2ccc(CN3CCN(c4ccncc4)CC3)cc2NC1=O)c1n[nH]c(Cc2ccccc2)n1` (racemic) [Compound I-7, (±)-5-Benzyl-N-(2-oxo-8-((4-(pyridin-4-yl)piperazin-1-yl)methyl)-2,3,4,5-tetrahydro-1H-benzo[b]azepin-3-yl)-1H-1,2,4-triazole-3-carboxamide], the values for the IC50 at human RIP1 and against RIPK1 were 2650 nM and 806 nM, respectively.
Regarding `[2H]C([2H])([2H])N1C(=O)[C@@H](NC(=O)n2cc(Cc3ccc(F)cc3)cn2)CCc2ccc(C#CC(C)(C)O)cc21` [Compound I-36, 4-(4-Fluorobenzyl)-N-(8-(3-hydroxy-3-methylbut-1-yn-1-yl)-1-(methyl-d)-2-oxo-2,3,4,5-tetrahydro-1H-benzo[b]azepin-3-yl)-1H-pyrazole-1-carboxamide], the IC50 (usually the concentration at which inhibition is half-maximal) came to 0.5 nM at human RIP1, 39.2 nM on RIPK1 and 4.5 nM on murine RIP1.
For `CN1C(=O)[C@@H](NC(=O)c2cc(Oc3ccccc3)ccn2)CCc2ccc(C#CC3(O)COC3)cc21` [Compound I-22, (S)—N-(8-((3-hydroxyoxetan-3-yl)ethynyl)-1-methyl-2-oxo-2,3,4,5-tetrahydro-1H-benzo[b]azepin-3-yl)-4-phenoxypicolinamide], in that order: 0.8 nM, 34.2 nM and 8.2 nM.
For `CN1C(=O)C(NC(=O)c2n[nH]c(Cc3ccccc3)n2)CCc2ccc(C#CC3(O)COC3)cc21` (racemic) [Compound I-16, (±)-5-Benzyl-N-(8-((3-hydroxyoxetan-3-yl)ethynyl)-1-methyl-2-oxo-2,3,4,5-tetrahydro-1H-benzo[b]azepin-3-yl)-1H-1,2,4-triazole-3-carboxamide] the same measures were 8.4 nM, 229 nM and 150 nM.
For `[2H]C([2H])([2H])N1C(=O)C(NC(=O)c2n[nH]c(Cc3ccccc3)n2)CCc2ccc(C#CC(C)(C)O)cc21` (racemic) [Compound I-14, (±)-5-Benzyl-N-(8-(3-hydroxy-3-methylbut-1-yn-1-yl)-1-(methyl-d)-2-oxo-2,3,4,5-tetrahydro-1H-benzo[b]azepin-3-yl)-1H-1,2,4-triazole-3-carboxamide], in that order: 7.3 nM, 129 nM and 43.3 nM.
As to `[2H]C([2H])([2H])N1C(=O)C(NC(=O)c2n[nH]c(Cc3ccccc3)n2)CCc2ccc(N3CC4(CCOCC4)C3)cc21` (racemic) [Compound I-15, (±)-5-Benzyl-N-(1-(methyl-d3)-2-oxo-8-(7-oxa-2-azaspiro[3.5]nonan-2-yl)-2,3,4,5-tetrahydro-1H-benzo[b]azepin-3-yl)-1H-1,2,4-triazole-3-carboxamide], the 50% inhibitory concentration (IC50) on human RIP1 stood at 7.9 nM; at RIPK1 it was 106 nM; at murine RIP1 it was 257 nM.
For `CN1C(=O)C(NC(=O)c2ncn(Cc3c(Cl)cccc3Cl)n2)CCc2ccc(CN3CCN(c4ccncc4)CC3)cc21` (racemic) [Compound I-3, (±)-1-(2,6-Dichlorobenzyl)-N-(1-methyl-2-oxo-8-((4-(pyridin-4-yl)piperazin-1-yl)methyl)-2,3,4,5-tetrahydro-1H-benzo[b]azepin-3-yl)-1H-1,2,4-triazole-3-carboxamide], in that order: 5.8 nM, 30.7 nM and 2530 nM.
Regarding `O=C(NC1CCc2ccc(CN3CCN(c4ccncc4)CC3)cc2NC1=O)c1ncn(Cc2c(Cl)cccc2Cl)n1` (racemic) [Compound I-5, (±)-1-(2,6-Dichlorobenzyl)-N-(2-oxo-8-((4-(pyridin-4-yl)piperazin-1-yl)methyl)-2,3,4,5-tetrahydro-1H-benzo[b]azepin-3-yl)-1H-1,2,4-triazole-3-carboxamide], the IC50 on human RIP1 was 16.4 nM; on RIPK1, 65.6 nM.
For `CN1C(=O)C(NC(=O)c2n[nH]c(Cc3ccccc3)n2)CCc2ccc(CN3CCN(c4ccncc4)CC3)cc21` (racemic) [Compound I-4, (±)-5-Benzyl-N-(1-methyl-2-oxo-8-((4-(pyridin-4-yl)piperazin-1-yl)methyl)-2,3,4,5-tetrahydro-1H-benzo[b]azepin-3-yl)-1H-1,2,4-triazole-3-carboxamide], in that order: 53.9 nM and 525 nM.
For `O=C(NC1CCc2ccc(CN3CCN(c4ccncc4)CC3)cc2NC1=O)c1cc(Oc2ccccc2)ccn1` (racemic) [Compound I-26, (±)-N-(2-Oxo-8-((4-(pyridin-4-yl)piperazin-1-yl)methyl)-2,3,4,5-tetrahydro-1H-benzo[b]azepin-3-yl)-4-phenoxypicolinamide], in that order: 3890 nM and 661 nM.
For `O=C(NC1CCc2ccc(CN3CCN(c4ccncc4)CC3)cc2NC1=O)c1n[nH]c(Cc2ccccc2)n1` (racemic) [Compound I-6, (±)-5-Benzyl-N-(2-oxo-8-((4-(pyridin-4-yl)piperazin-1-yl)methyl)-2,3,4,5-tetrahydro-1H-benzo[b]azepin-3-yl)-1H-1,2,4-triazole-3-carboxamide], in that order: 1460 nM and 330 nM.
As to `CN1C(=O)C(NC(=O)c2n[nH]c(Cc3ccccc3)n2)CCc2ccc(N3CCN4CCC3CC4)cc21` (racemic) [Compound I-11, (±)-N-(8-(1,4-Diazabicyclo[3.2.2]nonan-4-yl)-1-methyl-2-oxo-2,3,4,5-tetrahydro-1H-benzo[b]azepin-3-yl)-5-benzyl-1H-1,2,4-triazole-3-carboxamide], the IC50 on human RIP1 turned out to be 1080 nM; on RIPK1 it was 808 nM.
Take `CN1C(=O)C(NC(=O)c2nccc(-c3ccccc3)n2)CCc2ccc(CN3CCn4ncnc4C3)cc21` (racemic) [Compound I-39, (±)-N-(8-((5,6-dihydro-[1,2,4]triazolo[1,5-a]pyrazin-7(8H)-yl)methyl)-1-methyl-2-oxo-2,3,4,5-tetrahydro-1H-benzo[b]azepin-3-yl)-4-phenylpyrimidine-2-carboxamide]: the IC50 on human RIP1 amounted to 216 nM.
For `CN1C(=O)C(NC(=O)c2nccc(-c3ccccc3)n2)CCc2ccc(CN3CCN(c4ccncc4)CC3)cc21` (racemic) [Compound I-38, (±)-N-(1-Methyl-2-oxo-8-((4-(pyridin-4-yl)piperazin-1-yl)methyl)-2,3,4,5-tetrahydro-1H-benzo[b]azepin-3-yl)-4-phenylpyrimidine-2-carboxamide], the concentration for half-maximal inhibition (IC50) worked out at 6360 nM at human RIP1 and 4460 nM at RIPK1.

Source of the values: US20210070735A1, “RIP1 INHIBITORY COMPOUNDS AND METHODS FOR MAKING AND USING THE SAME” (Rigel Pharmaceuticals, Inc., priority 2019, published 2021).
